Laboratory results from BindingDB's records for doi:10.1021/jm020230j (Sunesis Pharmaceuticals, 2002).

Assays:
Experiment in all cases: Fluorometric Assay
Conditions in all cases: pH 7.4; 25 °C
[1] = biological target: Caspase-8 (Homo sapiens, UniProt Q14790)
Experimental: (§1) The effectiveness of compounds against the activity of human recombinant caspase-1-8 was measured using fluorometric assays. Assays were carried out in a 96-well flat bottom, polystyrene plates. […] Kinetic data were collected over a 15 min assay run at room temperature. IC50 values were calculated through a four parameter fit curve using the computer application SOFTmax PRO. Ki(apparent) values were calculated using the following equation: Ki(app) = IC50/(1 + [substrate]/Km).

[2] = biological target: T1, Caspase-7 (Homo sapiens, UniProt P55210)
T1 sequence (P55210 whole entry): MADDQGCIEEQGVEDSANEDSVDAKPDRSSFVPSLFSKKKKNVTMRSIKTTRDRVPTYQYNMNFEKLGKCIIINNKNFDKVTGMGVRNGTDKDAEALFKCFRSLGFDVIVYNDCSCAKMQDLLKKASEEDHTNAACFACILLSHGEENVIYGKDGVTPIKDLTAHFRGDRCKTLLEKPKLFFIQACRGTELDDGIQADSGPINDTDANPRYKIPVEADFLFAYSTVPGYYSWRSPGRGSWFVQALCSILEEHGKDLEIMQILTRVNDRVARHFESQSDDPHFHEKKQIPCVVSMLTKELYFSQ
Experimental: as §1

[3] = biological target: T2, Caspase-4 (Homo sapiens, UniProt P49662)
T2 sequence (P49662 whole entry): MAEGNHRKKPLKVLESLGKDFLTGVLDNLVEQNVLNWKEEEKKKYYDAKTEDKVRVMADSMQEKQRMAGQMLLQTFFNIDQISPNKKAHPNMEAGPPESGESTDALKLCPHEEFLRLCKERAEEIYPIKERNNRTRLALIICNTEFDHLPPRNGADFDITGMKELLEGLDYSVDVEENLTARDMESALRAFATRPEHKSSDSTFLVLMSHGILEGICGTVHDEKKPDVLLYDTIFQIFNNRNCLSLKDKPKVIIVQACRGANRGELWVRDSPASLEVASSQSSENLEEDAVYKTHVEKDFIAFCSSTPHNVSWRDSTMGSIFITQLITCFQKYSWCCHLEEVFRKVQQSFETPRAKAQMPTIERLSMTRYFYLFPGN
Experimental: as §1

[4] = biological target: T3, Caspase-2 (Homo sapiens, UniProt P42575)
T3 sequence (P42575 whole entry): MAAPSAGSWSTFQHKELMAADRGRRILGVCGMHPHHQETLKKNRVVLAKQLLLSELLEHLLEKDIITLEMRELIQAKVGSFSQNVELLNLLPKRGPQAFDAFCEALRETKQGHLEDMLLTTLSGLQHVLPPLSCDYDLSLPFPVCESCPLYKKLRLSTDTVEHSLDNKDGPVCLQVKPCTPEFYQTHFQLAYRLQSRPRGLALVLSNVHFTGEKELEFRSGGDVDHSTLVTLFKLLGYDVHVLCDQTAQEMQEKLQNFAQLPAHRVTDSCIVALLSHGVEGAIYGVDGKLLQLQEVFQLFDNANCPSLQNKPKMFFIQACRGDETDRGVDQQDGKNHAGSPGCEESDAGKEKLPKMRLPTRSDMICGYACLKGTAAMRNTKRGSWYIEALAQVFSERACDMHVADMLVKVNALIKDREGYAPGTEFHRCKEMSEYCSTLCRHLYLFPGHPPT
Experimental: as §1

[5] = biological target: T4, Caspase-3 (Homo sapiens, UniProt P42574)
T4 sequence (P42574 whole entry): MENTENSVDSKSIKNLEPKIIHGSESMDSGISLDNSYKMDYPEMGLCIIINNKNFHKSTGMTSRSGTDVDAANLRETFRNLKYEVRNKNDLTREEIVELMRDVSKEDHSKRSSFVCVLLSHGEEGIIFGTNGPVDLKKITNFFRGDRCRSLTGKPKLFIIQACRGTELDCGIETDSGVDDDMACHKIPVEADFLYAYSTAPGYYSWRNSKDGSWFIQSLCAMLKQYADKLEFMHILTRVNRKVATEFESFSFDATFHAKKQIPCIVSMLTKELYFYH
Experimental: as §1

[6] = biological target: T5, Caspase-1 (Homo sapiens, UniProt P29466)
T5 sequence (P29466 whole entry): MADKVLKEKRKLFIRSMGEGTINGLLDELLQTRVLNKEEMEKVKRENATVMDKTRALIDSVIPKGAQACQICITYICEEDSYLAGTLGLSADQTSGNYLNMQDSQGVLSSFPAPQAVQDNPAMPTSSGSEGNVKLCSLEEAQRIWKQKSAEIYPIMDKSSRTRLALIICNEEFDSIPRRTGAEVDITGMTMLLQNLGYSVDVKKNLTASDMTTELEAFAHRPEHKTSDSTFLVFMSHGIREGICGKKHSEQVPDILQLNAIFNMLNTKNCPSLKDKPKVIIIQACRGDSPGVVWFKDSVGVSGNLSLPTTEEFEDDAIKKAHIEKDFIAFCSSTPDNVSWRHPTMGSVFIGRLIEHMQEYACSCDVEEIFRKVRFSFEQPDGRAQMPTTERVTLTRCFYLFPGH
Experimental: as §1

[7] = biological target: T6, Caspase-6 (Homo sapiens, UniProt P55212)
T6 sequence (P55212 whole entry): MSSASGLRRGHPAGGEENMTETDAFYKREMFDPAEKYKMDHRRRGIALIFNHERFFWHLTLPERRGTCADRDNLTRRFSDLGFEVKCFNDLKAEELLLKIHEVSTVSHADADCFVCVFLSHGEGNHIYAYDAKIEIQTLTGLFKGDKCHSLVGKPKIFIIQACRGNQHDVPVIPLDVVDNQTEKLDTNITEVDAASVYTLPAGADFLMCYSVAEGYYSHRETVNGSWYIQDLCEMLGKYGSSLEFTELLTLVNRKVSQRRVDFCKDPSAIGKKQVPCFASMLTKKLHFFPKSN
Experimental: as §1

Chain of Caspase-8 (Q14790 217-374 limits assumed): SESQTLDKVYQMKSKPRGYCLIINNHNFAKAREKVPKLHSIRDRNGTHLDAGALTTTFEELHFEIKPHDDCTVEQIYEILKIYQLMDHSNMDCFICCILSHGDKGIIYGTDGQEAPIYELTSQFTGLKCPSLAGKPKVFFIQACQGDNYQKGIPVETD
Chain of Caspase-8 (Q14790 385-479 limits assumed): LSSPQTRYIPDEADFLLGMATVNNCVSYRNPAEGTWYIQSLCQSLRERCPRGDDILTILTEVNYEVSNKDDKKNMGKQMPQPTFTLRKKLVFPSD

Ki [1]: 0.81 µM | Ki [2]: 0.09 µM | Ki [3]: 38 µM | Ki [4]: 11 µM | Ki [5]: 0.03 µM | Ki [6]: 1.5 µM | Ki [7]: 0.12 µM
Structure (SMILES): O=C(O)C[C@H](NC(=O)c1ccc(CNS(=O)(=O)c2ccc(O)c(C(=O)O)c2)nc1)C(=O)CSCc1ccccc1Cl [(S)-5-({5-[1-Carboxymethyl-3-(2-chloro-benzylsulfanyl)-2-oxo-propylcarbamoyl]pyridin-2-ylmethyl}sulfamoyl)-2-hydroxy-benzoic Acid]
